Measured values published in the RepoRT retention time repository (doi:10.1016/j.scitotenv.2015.08.078).

Assay: RP, Waters ACQUITY UPLC BEH C18, 100 × 2.1 mm, 1.7 µm, 0.3 mL/min, estimated dead time 0.73 min; A: water + 0.1% formic acid, pH 3; B: methanol + 0.1% formic acid, pH 3; gradient (min/%B) 0/10 14/90 16/90 18/10
Settings: stereoisomer not certain

| Structure (SMILES) | LC retention time [min] |
| --- | --- |
| O=C1CN=C(c2ccccc2F)c2cc(Cl)ccc2N1 [Desalkyl-flurazepam] | 10 |
| CCCCOC(=O)c1ccccc1C(=O)OCc1ccccc1 [Benzyl butyl phthalate] | 12.4 |
| CC1CN(C2CCCCCCCCCCC2)CC(C)O1 (stereo unspecified) [Dodemorph] | 13.4 |
| CCC1CCCC(OC2CCC(N(C)C)C(C)O2)C(C)C(=O)C2=CC3C(C=CC4CC(OC5OC(C)C(OC)C(OC)C5OC)CC43)C2CC(=O)O1 (stereo unspecified) [Spinosyn A] | 12 |
| CCOP(=S)(OCC)Oc1ccc([N+](=O)[O-])cc1 [Parathion] | 11.3 |
| Cc1cnc2c(C(=O)O)c(Cl)ccc2c1 [Quinmerac] | 3.44 |
| C=CCC1=C(C)C(OC(=O)C2C(C=C(C)C)C2(C)C)CC1=O (stereo unspecified) [Allethrin] | 13.1 |
| CC(CCc1ccc(O)cc1)NCC(O)c1ccc(O)cc1 (stereo unspecified) [Ractopamine] | 4.5 |
| CC1Cc2c(Cl)cc(C(=O)NC(Cc3ccccc3)C(=O)O)c(O)c2C(=O)O1 (stereo unspecified) [Ochratoxin A] | 9.15 |
| CCOP(=S)(OCC)Oc1ccc2c(C)c(Cl)c(=O)oc2c1 [Coumaphos] | 12.4 |
| CC(C)N(C(=O)CCl)c1ccccc1 [Propachlor] | 8.99 |
| CCC(C)C1OC2(C=CC1C)CC1CC(CC=C(C)C(OC3CC(OC)C(OC4CC(OC)C(O)C(C)O4)C(C)O3)C(C)C=CC=C3COC4C(O)C(C)=CC(C(=O)O1)C34O)O2 (stereo unspecified) [Abamectin B1a] | 13.5 |
| CNC(=O)C=C(C)OP(=O)(OC)OC [Monocrotophos] | 3.57 |
| O=C(NC(=O)c1c(F)cccc1F)Nc1cc(Cl)c(OC(F)(F)C(F)C(F)(F)F)cc1Cl (stereo unspecified) [Lufenuron] | 9.67 |
| CC(C)N(Cc1ccccc1)C(=O)C(C)(C)C [Tebutam] | 11.1 |
| CNC(=O)c1cc(Cl)cc(C)c1NC(=O)c1cc(Br)nn1-c1ncccc1Cl [Chlorantraniliprole] | 10.4 |
| COCc1cnc(C2=NC(C)(C(C)C)C(=O)N2)c(C(=O)O)c1 (stereo unspecified) [Imazamox] | 3.21 |
| COP(=S)(OC)Oc1nc(Cl)c(Cl)cc1Cl [Chlorpyriphos-methyl] | 12.1 |
| Cc1ccc(N(SC(F)(Cl)Cl)S(=O)(=O)N(C)C)cc1 [Tolyfluanid] | 12.4 |
| COP(=S)(OC)Oc1ccc(SC)c(C)c1 [Fenthion] | 11.7 |
| CCCSP(=O)(OCC)Oc1ccc(Br)cc1Cl (stereo unspecified) [Profenofos] | 12.7 |
| COc1cc2c(c3oc(=O)c4c(c13)CCC4=O)C1(O)C=COC1O2 (stereo unspecified) [Aflatoxin M1] | 7.15 |

| Structure (SMILES) | LC retention time [min] |
| --- | --- |
| CCOP(=O)(SC(C)CC)N1CCSC1=O (stereo unspecified) [Fosthiazate] | 8.33 |
| CNC(=O)N(C)c1nnc(C(C)(C)C)s1 [Tebuthiuron] | 7.79 |
| NC(=O)NN=Cc1ccc([N+](=O)[O-])o1 [Nitrofurazone] | 2.99 |
| O=C(O)c1cn(C2CC2)c2cc(N3CCNCC3)c(F)cc2c1=O [Ciprofloxacin] | 3.93 |
| CCC(=O)Nc1ccc(Cl)c(Cl)c1 [Propanil] | 10.3 |
| CC(C)(C)C(O)C(Cc1ccc(Cl)cc1)n1cncn1 (stereo unspecified) [Paclobutrazol] | 10.8 |
| CCCN(CC)CC1COC2(CCC(C(C)(C)C)CC2)O1 (stereo unspecified) [Spiroxamine] | 10 |
| COc1ccc(C(O)(c2cncnc2)C2CC2)cc1 (stereo unspecified) [Ancymidol] | 7.72 |
| CC1=NNC(=O)N(N=Cc2cccnc2)C1 [Pymetrozine] | 2.25 |
| CSc1nc(N)nc(NC(C)(C)C)n1 [Deethylterbutryn] | 9.3 |
| CCOP(=S)(OCC)Oc1cnc2ccccc2n1 [Quinalphos] | 11.3 |
| CC1(C)CN=C(NN=C(C=Cc2ccc(C(F)(F)F)cc2)C=Cc2ccc(C(F)(F)F)cc2)NC1 [Hydramethylnon] | 12.8 |
| CN(C)C(=O)Nc1ccc(-n2nc(C(C)(C)C)oc2=O)c(Cl)c1 [Dimefuron] | 9.63 |
| O=C(NC(=O)c1c(F)cccc1F)Nc1cc(Cl)c(Oc2ncc(C(F)(F)F)cc2Cl)c(Cl)c1 [Chlorfluazuron] | 13.9 |
| CN(C)C(=O)Nc1ccc(Cl)c(Cl)c1 [Diuron] | 9.72 |
| Cc1ccnc(NS(=O)(=O)c2ccc(N)cc2)n1 [Sulfamerazine] | 2.75 |
| COc1cc(OC)nc(NC(=O)NS(=O)(=O)c2ncccc2C(F)(F)F)n1 [Flazasulfuron] | 7.14 |
| C[Si](Cn1cncn1)(c1ccc(F)cc1)c1ccc(F)cc1 [Flusilazole] | 11.4 |
| OC(Cn1cncn1)(c1ccc(F)cc1)c1ccccc1F (stereo unspecified) [Flutriafol] | 8.93 |
| Nc1ccc(S(=O)(=O)NC(=O)c2ccccc2)cc1 [Sulfabenzamide] | 3 |
| COc1nn(CSP(=S)(OC)OC)c(=O)s1 [Methidathion] | 9.91 |
| Cc1onc(-c2c(Cl)cccc2Cl)c1C(=O)NC1C(=O)N2C1SC(C)(C)C2C(=O)O (stereo unspecified) [Dicloxacillin] | 10.4 |

| Structure (SMILES) | LC retention time [min] |
| --- | --- |
| CCCCNC(=O)NS(=O)(=O)c1ccc(C)cc1 [Tolbutamide] | 8.33 |
| Cc1ccc(C(=CCN2CCCC2)c2ccccn2)cc1 [Triprolidine] | 7.64 |
| CNC(=O)ON=C(C)SC [Methomyl] | 3.09 |
| COC(=O)C(C)N(C(=O)c1ccccc1)c1ccc(F)c(Cl)c1 (stereo unspecified) [Flamprop-methyl] | 10.7 |
| CCCCC(C)C(OC(=O)CC(CC(=O)O)C(=O)O)C(CC(C)CC(O)CCCCC(O)CC(O)C(C)N)OC(=O)CC(CC(=O)O)C(=O)O (stereo unspecified) [Fumonisin B1] | 9.48 |
| COC(=O)Nc1nc2ccccc2[nH]1 [Carbendazim] | 3.42 |
| CCn1cc(C(=O)O)c(=O)c2cc(F)c(N3CCNCC3)cc21 [Norfloxacin] | 4.27 |
| COC=C(C(=O)OC)c1ccccc1Oc1cc(Oc2ccccc2C#N)ncn1 [Azoxystrobin] | 10.6 |
| Nc1cnn(-c2ccccc2)c(=O)c1Cl [Chloridazon (Pyrazon)] | 4.82 |
| CCCC(Cn1cncn1)c1ccc(Cl)cc1Cl (stereo unspecified) [Penconazole] | 11.6 |
| COP(=S)(OC)Oc1ccc(Sc2ccc(OP(=S)(OC)OC)cc2)cc1 [Temephos (Abate)] | 13 |
| CCC(=O)OC1(C(=O)CCl)C(C)CC2C3CCC4=CC(=O)C=CC4(C)C3(F)C(O)CC21C (stereo unspecified) [Clobetasol propionate] | 11.4 |
| OC(c1ccc(Cl)cc1)(c1cncnc1)c1ccccc1Cl (stereo unspecified) [Fenarimol] | 11.6 |
| CCc1cccc(CC)c1N(COC)C(=O)CCl [Alachlor] | 11.7 |
| CC1CCCC(O)CCCCCc2cc(O)cc(O)c2C(=O)O1 (stereo unspecified) [Zeranol (Alfa Zearalanol. a-ZAL)] | 10.7 |
| CC(=O)c1ccc2c(c1)N(CCCN(C)C)c1ccccc1S2 [Acepromazine] | 8.97 |
| CN1C(=O)CN=C(c2ccccc2)c2cc(Cl)ccc21 [Diazepam] | 10.9 |
| CC(=O)Nc1ccc(O)cc1 [Acetaminophen] | 2.4 |
| CCOP(=S)(OCC)SCS(=O)(=O)CC [Phorate sulfone] | 8.76 |
| CN1CCCC1c1cccnc1 (stereo unspecified) [Nicotine] | 1.12 |
| Cc1ncc([N+](=O)[O-])n1CCO [Metronidazole (MNZ)] | 5.38 |
| CCOc1ccc2c(c1)C(C)=CC(C)(C)N2 [Ethoxyquin] | 9.64 |

| Structure (SMILES) | LC retention time [min] |
| --- | --- |
| COc1ccc(C(CN(C)C)C2(O)CCCCC2)cc1 (stereo unspecified) [Venlafaxine] | 7.23 |
| COCC1OC(=O)c2coc3c2C1(C)C1=C(C3=O)C2CCC(=O)C2(C)CC1OC(C)=O (stereo unspecified) [Wortmannin] | 7.75 |
| c1coc(-c2nc3ccccc3[nH]2)c1 [Fuberidazole] | 6.61 |
| CNC(=O)Oc1cccc2c1OC(C)(C)O2 [Bendiocarb] | 7.43 |
| O=C1CCc2cccc3c2N1CC3 [Pyroquilon] | 7.09 |
| CCOCN(C(=O)CCl)c1c(C)cccc1CC [Acetochlor] | 11.1 |
| CON=C(C(=O)NC1C(=O)N2C(C(=O)[O-])=C(C[n+]3cccc4c3CCCC4)CSC12)c1csc(N)n1 (stereo unspecified) [Cefquinome] | 3.4 |
| CCOc1cc(OP(=S)(OC)OC)nc(CC)n1 [Etrimfos] | 11.6 |
| COC(=O)C(C)N(C(=O)c1ccco1)c1c(C)cccc1C (stereo unspecified) [Furalaxyl] | 10 |
| O=C(O)Cn1c(=O)sc2cccc(Cl)c21 [Benazolin] | 4.59 |
| CN(C)CCCN1c2ccccc2Sc2ccc(C(F)(F)F)cc21 [Triflupromazine] | 10.6 |
| CCNc1nc(NC(C)(C)C)nc(SC)n1 [Terbutryn] | 9.91 |
| CC(C)C1(C)N=C(c2nc3ccccc3cc2C(=O)O)NC1=O (stereo unspecified) [Imazaquin] | 5.22 |
| O=C(NC(=O)c1c(F)cccc1F)Nc1ccc(CON=C(c2ccc(Cl)cc2)C2CC2)cc1 [Flucycloxuron] | 13.4 |
| CC1=C(C(=O)Nc2ccccc2)SCCO1 [Carboxin] | 7.77 |
| CCC(CC)Nc1c([N+](=O)[O-])cc(C)c(C)c1[N+](=O)[O-] [Pendimethalin] | 14.2 |
| CCNc1nc(Cl)nc(NC(C)(C)C)n1 [Terbuthylazine] | 10.5 |
| CCOC(=O)C(Cl)Cc1cc(-n2nc(C)n(C(F)F)c2=O)c(F)cc1Cl (stereo unspecified) [Carfentrazone-ethyl] | 11.4 |
| CCC(=C(CC)c1ccc(O)cc1)c1ccc(O)cc1 [Diethylstilbestrol] | 10.9 |
| CCC1OC(=O)C(C)C(OC2CC(C)(OC)C(O)C(C)O2)C(C)C(OC2OC(C)CC(N(C)C)C2O)C(C)(O)CC(C)CN(C)C(C)C(O)C1(C)O (stereo unspecified) [Azithromycin] | 6.2 |
